Laboratory results reported in paper PMC7956819, “Peptides from the Intestinal Tract of Breast Milk-Fed Infants Have Antimicrobial and Bifidogenic Activity” (International Journal of Molecular Sciences, 2021).
Entries after “also recorded” stand apart in the source; their conditions may differ. Peptide text beside a SMILES is read from it.

System: Staphylococcus aureus ATCC 12600
Type: cell-based
Conditions: ATCC 12600, 18 h
Method: (§1) The bioactivity of the intestinal peptide extracts was determined via the microdilution method. Antimicrobial activity was screened with E. coli and S. aureus as representatives of common infant pathogens responsible for infectious disease, and growth-promoting activity was screened with B. infantis, one of the ideal colonizers of the infant gut. For the antimicrobial assays, colonies of bacteria were selected and inoculated in 2 mL of MHB and incubated at 37 °C for 24 h. The inoculum was diluted to 2 × 10^5 CFU/mL with MHB. For the growth-promoting assays, 100 µL of stock bacteria were inoculated in 10 mL of reinforced clostridial broth supplemented with 0.1% ascorbic acid and incubated under anaerobic conditions (BD BBL™ GasPak™) at 37 °C for 24 h. Optical density was measured at 600 nm, and the inoculum was diluted to an optical density of 0.05 with reinforced clostridial broth.
(§2) The intestinal peptide extracts were serially diluted with PBS to concentrations of 1×, 1/2×, 1/4×, 1/8×, 1/16×, 1/32×, 1/64×, and 1/128×. In a 96-well plate, 50 µL of each dilution was incubated with 50 µL of inoculum in duplicate, along with a negative control of 50 µL of inoculum with 50 µL of pure PBS and a sterility test of 50 µL of peptide with 50 µL of broth. Growth was determined by optical density readings at 600 nm (OD600) taken at 0 h (T0) and 18 h (T18). The following equation was used to determine percent inhibition or promotion of bacterial growth:
(§3) Candidate peptides were synthesized and dissolved in sterile nanopure water. Antimicrobial and growth-promoting assays were carried out as described above with serial dilutions ranging from […] to 15.6 μg/mL. Minimum inhibitory concentration (MIC) was determined by the concentration at which all visible growth was inhibited.
For `CC[C@H](C)[C@H](NC(=O)[C@H](CCC(N)=O)NC(=O)[C@H](C)NC(=O)[C@H](Cc1c[nH]cn1)NC(=O)[C@@H]1CCCN1C(=O)[C@H](CCCNC(=N)N)NC(=O)[C@@H](NC(=O)[C@@H](NC(=O)[C@H](C)NC(=O)[C@@H]1CCCN1C(=O)[C@H](CC(N)=O)NC(=O)[C@H](C)NC(=O)[C@@H](N)Cc1ccc(O)cc1)C(C)C)C(C)C)C(=O)N1CCC[C@H]1C(=O)N[C@@H](CCC(N)=O)C(=O)N[C@@H](CCCNC(=N)N)C(=O)O` [Peptide 6] (H-YANPAVVRPHAQIPQR-OH; N-terminus and C-terminus assumed), the “S. aureus MIC” value was >3000 µg/mL. In the case of `CC[C@H](C)[C@H](NC(=O)[C@H](CCC(N)=O)NC(=O)[C@H](Cc1c[nH]cn1)NC(=O)[C@@H](NC(=O)[C@@H]1CCCN1C(=O)[C@H](CC(N)=O)NC(=O)[C@H](CC(C)C)NC(=O)[C@@H](N)CC(C)C)[C@@H](C)O)C(=O)N[C@@H](Cc1ccc(O)cc1)C(=O)N1CCC[C@H]1C(=O)N[C@H](C(=O)N[C@H](C(=O)N[C@@H](CCC(N)=O)C(=O)N1CCC[C@H]1C(=O)N[C@@H](CC(C)C)C(=O)N[C@@H](C)C(=O)N1CCC[C@H]1C(=O)N[C@H](C(=O)N[C@@H](Cc1c[nH]cn1)C(=O)N[C@@H](CC(N)=O)C(=O)N1CCC[C@H]1C(=O)N[C@H](C(=O)N[C@@H](CO)C(=O)O)[C@@H](C)CC)C(C)C)[C@@H](C)O)C(C)C` [Peptide 2] (H-LLNPTHQIYPVTQPLAPVHNPIS-OH), the “S. aureus MIC” value is reported as >3000 µg/mL.

System: Escherichia coli BL21 (DE3)
Type: cell-based
Conditions: BL21, 18 h
Method: as §1, §2, §3
For `CC[C@H](C)[C@H](NC(=O)[C@H](CCC(N)=O)NC(=O)[C@H](C)NC(=O)[C@H](Cc1c[nH]cn1)NC(=O)[C@@H]1CCCN1C(=O)[C@H](CCCNC(=N)N)NC(=O)[C@@H](NC(=O)[C@@H](NC(=O)[C@H](C)NC(=O)[C@@H]1CCCN1C(=O)[C@H](CC(N)=O)NC(=O)[C@H](C)NC(=O)[C@@H](N)Cc1ccc(O)cc1)C(C)C)C(C)C)C(=O)N1CCC[C@H]1C(=O)N[C@@H](CCC(N)=O)C(=O)N[C@@H](CCCNC(=N)N)C(=O)O` [Peptide 6] (H-YANPAVVRPHAQIPQR-OH; N-terminus and C-terminus assumed), the “E. coli MIC” value was >3000 µg/mL. In the case of `CC[C@H](C)[C@H](NC(=O)[C@H](CCC(N)=O)NC(=O)[C@H](Cc1c[nH]cn1)NC(=O)[C@@H](NC(=O)[C@@H]1CCCN1C(=O)[C@H](CC(N)=O)NC(=O)[C@H](CC(C)C)NC(=O)[C@@H](N)CC(C)C)[C@@H](C)O)C(=O)N[C@@H](Cc1ccc(O)cc1)C(=O)N1CCC[C@H]1C(=O)N[C@H](C(=O)N[C@H](C(=O)N[C@@H](CCC(N)=O)C(=O)N1CCC[C@H]1C(=O)N[C@@H](CC(C)C)C(=O)N[C@@H](C)C(=O)N1CCC[C@H]1C(=O)N[C@H](C(=O)N[C@@H](Cc1c[nH]cn1)C(=O)N[C@@H](CC(N)=O)C(=O)N1CCC[C@H]1C(=O)N[C@H](C(=O)N[C@@H](CO)C(=O)O)[C@@H](C)CC)C(C)C)[C@@H](C)O)C(C)C` [Peptide 2] (H-LLNPTHQIYPVTQPLAPVHNPIS-OH), the “E. coli MIC” value is reported as >3000 µg/mL.

System: Bifidobacterium longum spp. infantis ATCC 15697
Type: cell-based
Conditions: ATCC 15697, 18 h
Method: as §1, §2, §3
For `CC[C@H](C)[C@H](NC(=O)[C@H](CCC(N)=O)NC(=O)[C@H](C)NC(=O)[C@H](Cc1c[nH]cn1)NC(=O)[C@@H]1CCCN1C(=O)[C@H](CCCNC(=N)N)NC(=O)[C@@H](NC(=O)[C@@H](NC(=O)[C@H](C)NC(=O)[C@@H]1CCCN1C(=O)[C@H](CC(N)=O)NC(=O)[C@H](C)NC(=O)[C@@H](N)Cc1ccc(O)cc1)C(C)C)C(C)C)C(=O)N1CCC[C@H]1C(=O)N[C@@H](CCC(N)=O)C(=O)N[C@@H](CCCNC(=N)N)C(=O)O` [Peptide 6] (H-YANPAVVRPHAQIPQR-OH; N-terminus and C-terminus assumed), the “B. infantis MIC” value was >3000 µg/mL. For `CC[C@H](C)[C@H](NC(=O)[C@H](CCC(N)=O)NC(=O)[C@H](Cc1c[nH]cn1)NC(=O)[C@@H](NC(=O)[C@@H]1CCCN1C(=O)[C@H](CC(N)=O)NC(=O)[C@H](CC(C)C)NC(=O)[C@@H](N)CC(C)C)[C@@H](C)O)C(=O)N[C@@H](Cc1ccc(O)cc1)C(=O)N1CCC[C@H]1C(=O)N[C@H](C(=O)N[C@H](C(=O)N[C@@H](CCC(N)=O)C(=O)N1CCC[C@H]1C(=O)N[C@@H](CC(C)C)C(=O)N[C@@H](C)C(=O)N1CCC[C@H]1C(=O)N[C@H](C(=O)N[C@@H](Cc1c[nH]cn1)C(=O)N[C@@H](CC(N)=O)C(=O)N1CCC[C@H]1C(=O)N[C@H](C(=O)N[C@@H](CO)C(=O)O)[C@@H](C)CC)C(C)C)[C@@H](C)O)C(C)C` [Peptide 2] (H-LLNPTHQIYPVTQPLAPVHNPIS-OH), the “B. infantis MIC” value was >3000 µg/mL.

System: not given
Conditions: function listed in the MBPDB for the identical sequence; not tested here; cited from earlier work
Source text: page 3: Ta ble S1. List of known bioactive peptides in the infant intestinal samples.
In the case of VLVLDTDYK, the “Function (known bioactive peptides in the infant intestinal samples)” value (shortened to “Function”) is listed as “Antimicrobial; also recorded: DPP-IV-inhibitory”. In the case of LPQNIPPLT, the “Function” value is given as “DPP-IV-inhibitory”. For ALNEINQFYQK, the “Function” value is listed as “ACE-inhibitory”. In the case of VENLHLPLPLL, the “Function” value is given as “ACE-inhibitory”. In the case of LLYQEPVLGPVRGPFPIIV, the “Function” value is given as “ACE-inhibitory”. In the case of NLHLPLP, the “Function” value is given as “ACE-inhibitory”. In the case of PVVVPPFLQPE, the “Function” value is given as “Antimicrobial”. In the case of WSVPQPK, the “Function” value is given as “ACE-inhibitory; also recorded: Antioxidant”. For QVVPYPQ, the “Function” value is listed as “Antioxidant”. In the case of VLGPVRGPFP, the “Function” value is given as “ACE-inhibitory”. In the case of LLNQELLLNPTHQIYPV, the “Function” value is listed as “Antimicrobial”. In the case of RETIESLSSSEESITEYK, the “Function” value is given as “Cell-proliferative”. For IQPKTKVIPYVR, the “Function” value is given as “Antimicrobial”. In the case of YQEPVLGPVRGPFPI, the “Function” value is listed as “Antimicrobial”. In the case of IIAEKTKIPAVF, the “Function” value is given as “Antimicrobial”. In the case of TKKTKLTEEEKNRL, the “Function” value is given as “Antimicrobial”. In the case of FQPQPLIYP, the “Function” value is given as “ACE-inhibitory”. In the case of FSDKIAK, the “Function” value is listed as “ACE-inhibitory; also recorded: Antimicrobial”. For FALPQYLK, the “Function” value is listed as “ACE-inhibitory; also recorded: Antioxidant”. In the case of QEPVLGPVRGPFPIIV, the “Function” value is listed as “ACE-inhibitory”. In the case of LIVTQTMK, the “Function” value is listed as “Cytotoxic”. For YANPAVVRP, the “Function” value is listed as “ACE-inhibitory”. For TEDELQDKIHPF, the “Function” value is given as “Antimicrobial”. In the case of EPVLGPVRGPFP, the “Function” value is listed as “ACE-inhibitory”. For QELLLNPTHQIYPVTQPLAPVHNPISV, the “Function” value is given as “Antimicrobial”. For FPEVFGK, the “Function” value is given as “ACE-inhib itory”. For IQKVAGTW, the “Function” value is given as “ACE-inhibitory; also recorded: DPP-IV-inhibitory”. For DKIYPSFQPQPLIYP, the “Function” value is given as “ACE-inhibitory”. In the case of TKVIPYVRYL, the “Function” value is listed as “Antimicrobial”. For AASDISLLDAQSAPLR, the “Function” value is given as “Antimicrobial”. For LDIQKVAGTW, the “Function” value is listed as “ACE-inhibitory”. For SPTIPFFDPQIPK, the “Function” value is given as “Cell-proliferative”. In the case of LVYPFPGPI, the “Function” value is listed as “ACE-inhibitory”. For MAIPPKKNQDKTEIPTINT, the “Function” value is given as “Antimicrobial”. In the case of LKPTPEGDLE, the “Function” value is listed as “DPP-IV-inhibitory”. For IYPSFQPQPLIYP, the “Function” value is given as “ACE-inhibitory”. In the case of VLPVPQKAVPYPQR, the “Function” value is given as “Antimicrobial”. In the case of GLDIQKVAGT, the “Function” value is given as “Antimicrobial”. For ENLHLPLP, the “Function” value is listed as “ACE-inhibitory”. In the case of IKHQGLPQEV, the “Function” value is listed as “Antimicrobial”. In the case of FFVAPFPEVFGK, the “Function” value is given as “ACE-inhib itory”. In the case of VKEAMAPK, the “Function” value is listed as “Antimicrobial; also recorded: Antioxidant”. For RELEELNVPGEIVESLSSSEESITR, the “Function” value is given as “Caseinophosphopeptide; also recorded: Immunomodulatory”. In the case of FVAPFPEVFG, the “Function” value is given as “ACE-inhib itory”. In the case of AMKPWIQPK, the “Function” value is given as “ACE-inhib itory”. In the case of MPFPKYPVEP, the “Function” value is listed as “ACE-inhibitory”. In the case of LKPTPEGDL, the “Function” value is given as “DPP-IV-inhibitory”. In the case of NLHLPLPLL, the “Function” value is given as “ACE-inhibitory”. For INNQFLPYPY, the “Function” value is given as “DPP-I V-inhibitory”. For LTDLENLHLP, the “Function” value is given as “ACE-inhibitory”. For TPEVDDEALEK, the “Function” value is given as “Antimicrobial; also recorded: DPP-IV-inhibitory”. In the case of YQEPVLGPVRGPFPIIV, the “Function” value is given as “ACE-inhibitory; also recorded: Antimicrobial; also recorded: Antithrombin; also recorded: Immunomodulatory”. In the case of ENLHLPLPLL, the “Function” value is listed as “ACE-inhibitory”. For TVYTKGRVMP, the “Function” value is listed as “ACE-inhibitory”. For HPHPHLSF, the “Function” value is given as “ACE-inhibitory”. In the case of ALKALPMHIR, the “Function” value is listed as “Cell-proliferative”. In the case of ALPMHIR, the “Function” value is listed as “ACE-inhibitory; also recorded: Cell-proliferative”. For VYVEELKPTPEGDLEILLQK, the “Function” value is given as “Hypocholesterolemic”. For SDIPNPIGSENSEK, the “Function” value is given as “Antimicrobial”. For DAQSAPLRVY, the “Function” value is listed as “ACE-inhibitory”. For LRLKKYKVPQL, the “Function” value is listed as “Antimicrobial”. In the case of IGSENSEKTTMP, the “Function” value is given as “ACE-inhib itory”. In the case of VYPFPGPI, the “Function” value is given as “PEP-inhibitory”. For LENLHLPLP, the “Function” value is listed as “ACE-inhibitory”. In the case of VYPFPGPIPN, the “Function” value is given as “ACE-inhibitory; also recorded: Antioxidant”. For LYQEPVLGPVRGPFPIIV, the “Function” value is listed as “Immunomodulatory”. For PYVRYL, the “Function” value is listed as “ACE-inhibitory; also recorded: Antimicrobial; also recorded: Antioxidant”. In the case of YQKFPQY, the “Function” value is listed as “ACE-inhibitory; also recorded: Antioxidant”. In the case of YLGYLEQLLR, the “Function” value is given as “Anxiolytic”. In the case of LKALPMH, the “Function” value is listed as “ACE-inhibitory; also recorded: DPP-IV-inhibitory”. In the case of YQEPVLGPVR, the “Function” value is given as “ACE-inhibitory; also recorded: Immunomodulatory”.
